Experimental data: patent US11883526B2 (priority 2019, dated 2024)
Where two headings read alike, the source gives them in different places.

Tested on: subjects with MDD at imminent risk for suicide
Conditions: 84 mg
[1] = TEAE, double-blind phase, N = 35
[2] = adverse event, follow up phase, N = 27
[3] = overall summary, double-blind phase, N = 35
[4] = serious TEAE, double-blind phase, N = 35
[5] = serious adverse event, follow up phase, N = 27

In the case of CN[C@]1(c2ccccc2Cl)CCCCC1=O [esketamine, (S)-2-(2-chlorophenyl)-2-(methylamino)cyclohexanone], the “Vertigo: no. of subjects” value [1] was 4, the “Vision blurred: % of subjects” value [1] was “(8.6%)” and the “Vision blurred: no. of subjects” value [1] was 3. For the same compound, the “Vomiting: % of subjects” value [1] was “(20.0%)”, the “Vomiting: no. of subjects” value [1] was 7 and the “Weight increased: % of subjects” value [1] was “(5.7%)”. For the same compound, the “Weight increased: no. of subjects” value [1] was 2, the “Abdominal pain: % of subjects” value [2] was “(3.7%)” and the “Abdominal pain: no. of subjects” value [2] was 1. For the same compound, the “Abdominal tenderness: % of subjects” value [2] was “(3.7%)”, the “Abdominal tenderness: no. of subjects” value [2] was 1 and the “Aphthous ulcer: no. of subjects” value [2] was 0. For the same compound, the “Back pain: % of subjects” value [2] was “(3.7%)”, the “Back pain: no. of subjects” value [2] was 1 and the “Bronchitis: no. of subjects” value [2] was 0. For the same compound, the “Cellulitis: no. of subjects” value [2] was 0, the “Cogwheel rigidity: % of subjects” value [2] was “(3.7%)” and the “Cogwheel rigidity: no. of subjects” value [2] was 1. For the same compound, the “Contusion: % of subjects” value [2] was “(3.7%)”, the “Contusion: no. of subjects” value [2] was 1 and the “Depressed mood: no. of subjects” value [2] was 0. For the same compound, the “Depression: % of subjects” value [2] was “(3.7%)”, the “Depression: no. of subjects” value [2] was 1 and the “Diarrhea: % of subjects” value [2] was “(3.7%)”. For the same compound, the “Diarrhea: no. of subjects” value [2] was 1, the “Dizziness: % of subjects” value [2] was “(3.7%)” and the “Dizziness: no. of subjects” value [2] was 1. For the same compound, the “Drug hypersensitivity: no. of subjects” value [2] was 0, the “Dry mouth: % of subjects” value [2] was “(7.4%)” and the “Dry mouth: no. of subjects” value [2] was 2. For the same compound, the “Dysgeusia: % of subjects” value [2] was “(3.7%)”, the “Dysgeusia: no. of subjects” value [2] was 1 and the “Ear and labyrinth disorders: no. of subjects” value [2] was 0. For the same compound, the “Ear infection: % of subjects” value [2] was “(3.7%)”, the “Ear infection: no. of subjects” value [2] was 1 and the “Epistaxis: % of subjects” value [2] was “(3.7%)”. For the same compound, the “Epistaxis: no. of subjects” value [2] was 1, the “Flank pain: % of subjects” value [2] was “(3.7%)” and the “Flank pain: no. of subjects” value [2] was 1. For the same compound, the “Folliculitis: no. of subjects” value [2] was 0, the “Gastrointestinal disorders: % of subjects” value [2] was “(22.2%)” and the “Gastrointestinal disorders: no. of subjects” value [2] was 6. The “Headache: % of subjects” value [2] was “(7.4%)”, the “Headache: no. of subjects” value [2] was 2 and the “Immune system disorders: no. of subjects” value [2] was 0. The “Infections and infestations: % of subjects” value [2] was “(11.1%)”, the “Infections and infestations: no. of subjects” value [2] was 3 and the “Influenza: no. of subjects” value [2] was 0. The “Injury, poisoning and procedural complications: % of subjects” value [2] was “(7.4%)”, the “Injury, poisoning and procedural complications: no. of subjects” value [2] was 2 and the “Insomnia: % of subjects” value [2] was “(11.1%)”. The “Insomnia: no. of subjects” value [2] was 3, the “Intentional self-injury: % of subjects” value [2] was “(3.7%)” and the “Intentional self-injury: no. of subjects” value [2] was 1. For the same compound, the “Loss of consciousness: % of subjects” value [2] was “(3.7%)”, the “Loss of consciousness: no. of subjects” value [2] was 1 and the “Meniere's disease: no. of subjects” value [2] was 0. The “Metabolism and nutrition disorders: no. of subjects” value [2] was 0, the “Migraine: % of subjects” value [2] was “(3.7%)” and the “Migraine: no. of subjects” value [2] was 1. For the same compound, the “Musculoskeletal and connective tissue disorders: % of subjects” value [2] was “(7.4%)”, the “Musculoskeletal and connective tissue disorders: no. of subjects” value [2] was 2 and the “Musculoskeletal chest pain: % of subjects” value [2] was “(3.7%)”. For the same compound, the “Musculoskeletal chest pain: no. of subjects” value [2] was 1, the “Musculoskeletal pain: % of subjects” value [2] was “(3.7%)” and the “Musculoskeletal pain: no. of subjects” value [2] was 1. The “Nasal congestion: % of subjects” value [2] was “(3.7%)”, the “Nasal congestion: no. of subjects” value [2] was 1 and the “Nasopharyngitis: % of subjects” value [2] was “(3.7%)”. The “Nasopharyngitis: no. of subjects” value [2] was 1, the “Nausea: no. of subjects” value [2] was 0 and the “Neck pain: % of subjects” value [2] was “(3.7%)”. The “Neck pain: no. of subjects” value [2] was 1, the “Nervous system disorders: % of subjects” value [2] was “(22.2%)” and the “Nervous system disorders: no. of subjects” value [2] was 6. The “Night sweats: % of subjects” value [2] was “(3.7%)”, the “Night sweats: no. of subjects” value [2] was 1 and the “Panic reaction: no. of subjects” value [2] was 0. The “Pelvic pain: % of subjects” value [2] was “(3.7%)”, the “Pelvic pain: no. of subjects” value [2] was 1 and the “Pharyngitis: % of subjects” value [2] was “(7.4%)”. The “Pharyngitis: no. of subjects” value [2] was 2, the “Polydipsia: no. of subjects” value [2] was 0 and the “Procedural pain: no. of subjects” value [2] was 0. For the same compound, the “Psychiatric disorders: % of subjects” value [2] was “(18.5%)”, the “Psychiatric disorders: no. of subjects” value [2] was 5 and the “Rash: no. of subjects” value [2] was 0. For the same compound, the “Renal and urinary disorders: no. of subjects” value [2] was 0, the “Renal failure: no. of subjects” value [2] was 0 and the “Reproductive system and breast disorders: % of subjects” value [2] was “(3.7%)”. The “Reproductive system and breast disorders: no. of subjects” value [2] was 1, the “Respiratory, thoracic and mediastinal disorders: % of subjects” value [2] was “(7.4%)” and the “Respiratory, thoracic and mediastinal disorders: no. of subjects” value [2] was 2. For the same compound, the “Restlessness: % of subjects” value [2] was “(3.7%)”, the “Restlessness: no. of subjects” value [2] was 1 and the “Road traffic accident: % of subjects” value [2] was “(3.7%)”. For the same compound, the “Road traffic accident: no. of subjects” value [2] was 1, the “Sedation: % of subjects” value [2] was “(3.7%)” and the “Sedation: no. of subjects” value [2] was 1. The “Self-injurious ideation: no. of subjects” value [2] was 0, the “Sexual dysfunction: no. of subjects” value [2] was 0 and the “Skin and subcutaneous tissue disorders: % of subjects” value [2] was “(3.7%)”. For the same compound, the “Skin and subcutaneous tissue disorders: no. of subjects” value [2] was 1, the “Somnolence: no. of subjects” value [2] was 0 and the “Suicidal ideation: % of subjects” value [2] was “(3.7%)”. The “Suicidal ideation: no. of subjects” value [2] was 1, the “Suicide attempt: no. of subjects” value [2] was 0 and the “Tooth impacted: no. of subjects” value [2] was 0. For the same compound, the “Toothache: no. of subjects” value [2] was 0, the “Total no. subjects with adverse events: % of subjects” value [2] was “(48.1%)” and the “Total no. subjects with adverse events: no. of subjects” value [2] was 13. The “Tremor: % of subjects” value [2] was “(7.4%)”, the “Tremor: no. of subjects” value [2] was 2 and the “Upper respiratory tract infection: % of subjects” value [2] was “(3.7%)”. For the same compound, the “Upper respiratory tract infection: no. of subjects” value [2] was 1, the “Viral upper respiratory tract infection: no. of subjects” value [2] was 0 and the “Vomiting: % of subjects” value [2] was “(3.7%)”. For the same compound, the “Vomiting: no. of subjects” value [2] was 1, the “Vulvovaginal mycotic infection: % of subjects” value [2] was “(3.7%)” and the “Vulvovaginal mycotic infection: no. of subjects” value [2] was 1. For the same compound, the “1 or more serious TEAE: % of subjects” value [3] was 11.4%, the “1 or more serious TEAE: no. of subjects” value [3] was 4 and the “Possibly related TEAE: % of subjects” value [3] was 82.9%. For the same compound, the “Possibly related TEAE: no. of subjects” value [3] was 29, the “TEAE leading to death: no. of subjects” value [3] was 0 and the “TEAE leading to drug withdrawn: % of subjects” value [3] was 14.3%. The “TEAE leading to drug withdrawn: no. of subjects” value [3] was 5, the “TEAE: % of subjects” value [3] was 94.3% and the “TEAE: no. of subjects” value [3] was 33. For the same compound, the “Agitation: % of subjects” value [4] was 2.9%, the “Agitation: no. of subjects” value [4] was 1 and the “Depressive symptom: % of subjects” value [4] was 2.9%. For the same compound, the “Depressive symptom: no. of subjects” value [4] was 1, the “Psychiatric disorders: % of subjects” value [4] was 11.4% and the “Psychiatric disorders: no. of subjects” value [4] was 4. The “Suicidal ideation: % of subjects” value [4] was 5.7%, the “Suicidal ideation: no. of subjects” value [4] was 2 and the “Total no. subjects with a serious TEAE: % of subjects” value [4] was 11.4%. For the same compound, the “Total no. subjects with a serious TEAE: no. of subjects” value [4] was 4, the “Cellulitis: no. of subjects” value [5] was 0 and the “Infections and infestations: no. of subjects” value [5] was 0. The “Psychiatric disorders: % of subjects” value [5] was 3.7%, the “Psychiatric disorders: no. of subjects” value [5] was 1 and the “Suicidal ideation: % of subjects” value [5] was 3.7%. The “Suicidal ideation: no. of subjects” value [5] was 1, the “Suicide attempt: no. of subjects” value [5] was 0 and the “Total no. subjects with a serious adverse event: % of subjects” value [5] was 3.7%. The “Total no. subjects with a serious adverse event: no. of subjects” value [5] was 1.
